Results reported in patent publication US7262202B2, “Inhibitors of cyclin dependent kinases as anti-cancer agent” (Cyclacel Limited, priority 2001, dated 2007).
pIC50: −log10 of the molar value. Where two headings read alike, the source gives them in different places.

Tests used:
CDK2/cyclin E = biological target: T1, CDK2/cyclin E (Homo sapiens, UniProt P24941); experiment: CDK2/Cyclin E kinase assay (GST-Rb phosphorylation, radiolabelled ATP); assay type: biochemical;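 note: enzyme was His-tagged CDK2/cyclin E co-expressed in baculovirus-infected Sf9 insect cells and purified over a metal-chelate column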
T1 construct: His; made in house; host or cells: Sf9 insect cells (baculovirus)

[1] = 72-h MTT cellular proliferation assay, Hs27; assay type: cell-based; settings: human, Hs27 cells (non-transformed); non-transformed cell line Hs27, 72-h MTT; read-out: Cytotoxicity (IC50, μM) Hs27
Protocol: (§1) Selected compounds from the above examples were subjected to a standard cellular proliferation assay using a range of different human tumour cell lines. Standard 72-h MTT (thiazolyl blue; 3-[4,5-dimethylthiazol-2-yl]-2,5-diphenyltetrazolium bromide) assays were performed (Haselsberger, K.; Peterson, D. C.; Thomas, D. G.; Darling, J. L. Anti Cancer Drugs 1996, 7, 331–8; Loveland, B. E.; Johns, T. G.; Mackay, I. R.; Vaillant, F.; Wang, Z. X.; Hertzog, P. J. Biochemistry International 1992, 27, 501–10). Human tumour cell lines were obtained from the ATCC (American Type Culture Collection, 10801 University Boulevard, Manessas, Va. 20110-2209, USA).

[2] = 72-h MTT cellular proliferation assay, IMR90; assay type: cell-based; settings: human, IMR90 cells (non-transformed); non-transformed cell line IMR90, 72-h MTT; read-out: Cytotoxicity (IC50, μM) IMR90
Protocol: as §1

[3] = 72-h MTT cellular proliferation assay, W138; assay type: cell-based; settings: human, W138 cells (non-transformed); non-transformed cell line W138, 72-h MTT; read-out: Cytotoxicity (IC50, μM) W138
Protocol: as §1

human tumour cell lines = experiment: cell-based anti-proliferative assays
Text: These assays, including methods for their performance, are described in more detail in Example 3. Using such cell line and enzymes assays it may be determined whether a compound is anti-proliferative in the context of the present invention.
as §1

A549 = experiment: 72-h MTT cellular proliferation assay, A549; assay type: cell-based; settings: human tumour cell line A549, 72-h MTT; read-out: Cytotoxicity (IC50, μM) A549
Text: (§2) Selected compounds from the above examples were subjected to a standard cellular proliferation assay using a range of different human tumour cell lines.

HT29 = experiment: 72-h MTT cellular proliferation assay, HT29; assay type: cell-based; settings: HT-29; human tumour cell line HT29, 72-h MTT; read-out: Cytotoxicity (IC50, μM) HT29
Text: as §2

Saos-2 = experiment: 72-h MTT cellular proliferation assay, Saos-2; assay type: cell-based; settings: human tumour cell line Saos-2, 72-h MTT; read-out: Cytotoxicity (IC50, μM) Saos-2
Text: as §2

HeLa = experiment: 72-h MTT cellular proliferation assay, HeLa; assay type: cell-based; settings: human tumour cell line HeLa, read-out: Cytotoxicity (IC50, μM) HeLa
Text: as §2

MCF7 = experiment: 72-h MTT cellular proliferation assay, MCF7; assay type: cell-based; settings: human tumour cell line MCF7, 72-h MTT; read-out: Cytotoxicity (IC50, μM) MCF7
Text: as §2

[4] = bound stated, (±0.05), read-out: IC50 for cdk2/cyclinE

SMILES | pIC50 (CDK2/cyclin E; [4]) | melting point [°C] | pIC50 (CDK2/cyclin E; read-out: CDK2/cyclin E (IC50)) | IC50 at 72 h [1] [µM] | IC50 at 72 h [2] [µM] | IC50 at 72 h [3] [µM] | anti-proliferative activity in cell-based assays (human tumour cell lines) | IC50 (A549) [µM] | IC50 (HT29) [µM] | IC50 (Saos-2) [µM] | IC50 (HeLa) [µM] | IC50 (MCF7) [µM]
Cc1[nH]c(C#N)c(C)c1-c1ccnc(Nc2ccc(F)cc2)n1 [Compound 32, 4-[2-(4-Fluoro-phenylamino)-pyrimidin-4-yl]-3,5-dimethyl-1H-pyrrole-2-carbonitrile] | > 6.30 |  |  | 15.1 | 20.8 | 9.6 | particularly effective anti-proliferative agents |  |  |  |  | 
Cc1[nH]c(C#N)c(C)c1-c1ccnc(Nc2ccc(C(F)(F)F)cc2)n1 [Compound 34, 3,5-Dimethyl-4-[2-(4-trifluoromethyl-phenylamino)-pyrimidin-4-yl]-H-pyrrole-2-carbonitrile] | > 6.30 | 195.6 to 198.9 |  |  |  |  | particularly effective anti-proliferative agents | 3.64 | 0.95 | 3.4 |  | 
Cc1[nH]c(C#N)c(C)c1-c1ccnc(Nc2ccc(I)cc2)n1 [Compound 35, 4-[2-(4-Iodo-phenylamino)-pyrimidin-4-yl]-3,5-dimethyl-1H-pyrrole-2-carbonitrile] | > 6.30 | 178.3 to 181.2 |  | 35.1 | 37.3 | 21.3 | particularly effective anti-proliferative agents | 0.51 | 0.11 | 0.75 | 0.09 | 0.45
Cc1ccc(Nc2nccc(-c3c(C)[nH]c(C#N)c3C)n2)cc1I [Compound 38, 4-[2-(3-Iodo-4-methyl-phenylamino)-pyrimidin-4-yl]-3,5-dimethyl-1H-pyrrole-2-carbonitrile] | > 6.00 | 189.5 to 191.7 |  |  |  |  | particularly effective anti-proliferative agents | 3.6 | 0.72 | 3.12 |  | 
Cc1cc(Nc2nccc(-c3c(C)[nH]c(C#N)c3C)n2)ccc1Cl [Compound 39, 4-[2-(4-Chloro-3-methyl-phenylamino)-pyrimidin-4-yl]-3,5-dimethyl-1H-pyrrole-2-carbonitrile] | > 6.00 | 194.2 to 197.9 | 5.99 |  |  |  | particularly effective anti-proliferative agents | 4.37 | 3.27 | 5.88 |  | 

The next lines start with results.

pIC50 (CDK2/cyclin E; [4]) | melting point [°C] | pIC50 (CDK2/cyclin E; read-out: CDK2/cyclin E (IC50)) | SMILES | IC50 at 72 h [1] [µM] | IC50 at 72 h [2] [µM] | IC50 at 72 h [3] [µM] | anti-proliferative activity in cell-based assays (human tumour cell lines) | IC50 (A549) [µM] | IC50 (HT29) [µM] | IC50 (Saos-2) [µM] | IC50 (HeLa) [µM] | IC50 (MCF7) [µM]
> 6.00 | 177.7 to 179.9 |  | Cc1ccc(Nc2nccc(-c3c(C)[nH]c(C#N)c3C)n2)cc1F [Compound 42, 4-[2-(3-Fluoro-4-methyl-phenylamino)-pyrimidin-4-yl]-3,5-dimethyl-1H-pyrrole-2-carbonitrile] |  |  |  | particularly effective anti-proliferative agents | 1.49 | 0.28 | 2.23 |  | 
> 6.00 | 190.6 to 193.7 |  | Cc1[nH]c(C#N)c(C)c1-c1ccnc(Nc2ccc(N(C)C)cc2)n1 [Compound 43, 4-[2-(4-Dimethylamino-phenylamino)-pyrimidin-4-yl]-3,5-dimethyl-1H-pyrrole-2-carbonitrile] |  |  |  | particularly effective anti-proliferative agents | 1.41 | 0.17 | 1.5 |  | 
> 6.00 | 265 to 268 |  | Cc1[nH]c([N+](=O)[O-])c(C)c1-c1ccnc(Nc2ccc(N(C)C)cc2)n1 [Compound 48, N-[4-(2,4-Dimethyl-5-nitro-1H-pyrrol-3-yl)-pyrimidin-2-yl]-N′,N′-dimethyl-benzene-1,4-diamine] |  |  |  | particularly effective anti-proliferative agents | 3.05 | 0.61 | 2.65 |  | 
> 6.30 | 198.1 to 203 |  | Cc1[nH]c(Br)c(C)c1-c1ccnc(Nc2cccc([N+](=O)[O-])c2)n1 [Compound 51, [4-(5-Bromo-2,4-dimethyl-1H-pyrrol-3-yl)-pyrimidin-2-yl]-(3-nitro-phenyl)-amine] |  |  |  | particularly effective anti-proliferative agents | 7.56 | 2.92 | 12.4 |  | 
> 6.30 | 88.4 to 91.6 |  | Cc1[nH]c(CN(C)C)c(C)c1-c1ccnc(Nc2ccc(F)cc2)n1 [Compound 54, [4-(5-Dimethylaminomethyl-2,4-dimethyl-1H-pyrrol-3-yl)-pyrimidin-2-yl]-(4-fluoro-phenyl)-amine] |  |  |  | particularly effective anti-proliferative agents | 2.76 | 3.2 | 0.7 |  | 
